# Results reported in patent publication US5447900A, “Thermosensitive recording material” (priority 1993, dated 1995).
# Test: Acid dissociation constant (pKa) by titration with sodium hydroxide, pH meter, in water/methanol 1:1
# Assay type: physicochemical
# Protocol: In Table 1, the acid dissociation constant of a compound was measured by the following method:
# A commercially available pH meter "HORIBA N-8F" (Trademark), made by Horiba Ltd., equipped with three composite electrodes, was calibrated by using the following two solutions:
# Water/methanol solution (with a volume ratio of 1:1) containing 0.05 mol/l potassium hydrogenphthalate.
# Water/methanol solution (with a volume ratio of 1:1) containing 0.01 mol/l tris(hydroxy)aminomethane and 0.01 mol/l tris(hydroxy)aminomethane hydrochloride.
# Then, a solution A was prepared in such a manner that 0.4969 g of 4-(4'-phenoxybutoxy)phthalic acid (Compound No. 1 in Table 1) and 0.5844 g of sodium chloride,were dissolved in a mixed solvent consisting of 50 ml of water and 50 ml of methanol.
# In addition, a 0.1068 mol/l sodium hydroxide aqueous solution was prepared by standardizing the solution with potassium hydrogen-phthalate. This solution was hereinafter referred to as a solution B.
# The solution A was placed in a beaker and stirred with a stirrer. The solution B was added dropwise in an amount of 0.5 to 1.0 ml to the solution A, with stirring, through a buret. When the pH of the solution A reached a constant value, the pH was measured. The pH was further measured with further addition of the solution B to the solution A, so that a titration curve was obtained. This titration curve was fitted in a theoretical formula by using a computer program, so that an acid dissociation constant of the compound No. 1 was calculated.
# [1] = comparative color developer, solvent not given
# [2] = mixed solvent of water and methanol, volume ratio 1:1
smiles,measurement,setting,value
"CC(C)(c1ccc(O)cc1)c1ccc(O)cc1 [4,4'-isopropylidene diphenol]",acid dissociation constant pKa1 (printed pKal),[1],~10.7
same,acid dissociation constant pKa2,[1],10.7
CC(C)Oc1ccc(S(=O)(=O)c2ccc(O)cc2)cc1 [4-isopropoxy-4'-hydroxydiphenylsulfone],acid dissociation constant pKa,[1],8.27
"O=C(O)c1ccc(OCCCCOc2ccccc2)cc1C(=O)O [Compound No. 1, 4-(4'-phenoxybutoxy)phthalic acid]",Acid Dissociation Constant pKa1,[2],3.55
same,acid dissociation constant pKa2,[2],6.59
